Target: T1, hERG cardiac potassium channel (Homo sapiens, UniProt Q12809)
T1 construct: host or cells: CHO-K1
Experiment: In vitro voltage clamp assay of inhibition of potassium ion current in whole cells expressing hERG
Assay type: cell-based
Details: pH 7.4, 5 minutes exposure, CHO-K1 cells
Procedure: Assay 4: In Vitro Voltage Clamp Assay of Inhibition of Potassium Ion Current in Whole Cells Expressing the hERG Cardiac Potassium Channel
CHO-K1 cells stably transfected with hERG cDNA were obtained from Gail Robertson at the University of Wisconsin. Cells were held in cryogenic storage until needed. Cells were expanded and passaged in Dulbecco's Modified Eagles Medium/F 12 supplemented with 10% fetal bovine serum and 200 μg/mL geneticin. Cells were seeded onto poly-D-lysine (100 μg/mL) coated glass coverslips, in 35 mm^2 dishes (containing 2 mL medium) at a density that enabled isolated cells to be selected for whole cell voltage-clamp studies. The dishes were maintained in a humidified, 5% CO2 environment at 37° C.
Extracellular solution was prepared at least every 7 days and stored at 4° C. when not in use. […]
The coverslips on which the cells were seeded were transferred to a recording chamber and perfused continuously. […] Peak current amplitudes during the repolarization phase were determined using pClamp software. […]
Peak current amplitudes during the repolarization phase were determined using pCLAMP software. […] The normalized current means and standard errors for each condition were calculated and plotted versus the time course of the experiment. […]

T1 sequence (Q12809 whole entry): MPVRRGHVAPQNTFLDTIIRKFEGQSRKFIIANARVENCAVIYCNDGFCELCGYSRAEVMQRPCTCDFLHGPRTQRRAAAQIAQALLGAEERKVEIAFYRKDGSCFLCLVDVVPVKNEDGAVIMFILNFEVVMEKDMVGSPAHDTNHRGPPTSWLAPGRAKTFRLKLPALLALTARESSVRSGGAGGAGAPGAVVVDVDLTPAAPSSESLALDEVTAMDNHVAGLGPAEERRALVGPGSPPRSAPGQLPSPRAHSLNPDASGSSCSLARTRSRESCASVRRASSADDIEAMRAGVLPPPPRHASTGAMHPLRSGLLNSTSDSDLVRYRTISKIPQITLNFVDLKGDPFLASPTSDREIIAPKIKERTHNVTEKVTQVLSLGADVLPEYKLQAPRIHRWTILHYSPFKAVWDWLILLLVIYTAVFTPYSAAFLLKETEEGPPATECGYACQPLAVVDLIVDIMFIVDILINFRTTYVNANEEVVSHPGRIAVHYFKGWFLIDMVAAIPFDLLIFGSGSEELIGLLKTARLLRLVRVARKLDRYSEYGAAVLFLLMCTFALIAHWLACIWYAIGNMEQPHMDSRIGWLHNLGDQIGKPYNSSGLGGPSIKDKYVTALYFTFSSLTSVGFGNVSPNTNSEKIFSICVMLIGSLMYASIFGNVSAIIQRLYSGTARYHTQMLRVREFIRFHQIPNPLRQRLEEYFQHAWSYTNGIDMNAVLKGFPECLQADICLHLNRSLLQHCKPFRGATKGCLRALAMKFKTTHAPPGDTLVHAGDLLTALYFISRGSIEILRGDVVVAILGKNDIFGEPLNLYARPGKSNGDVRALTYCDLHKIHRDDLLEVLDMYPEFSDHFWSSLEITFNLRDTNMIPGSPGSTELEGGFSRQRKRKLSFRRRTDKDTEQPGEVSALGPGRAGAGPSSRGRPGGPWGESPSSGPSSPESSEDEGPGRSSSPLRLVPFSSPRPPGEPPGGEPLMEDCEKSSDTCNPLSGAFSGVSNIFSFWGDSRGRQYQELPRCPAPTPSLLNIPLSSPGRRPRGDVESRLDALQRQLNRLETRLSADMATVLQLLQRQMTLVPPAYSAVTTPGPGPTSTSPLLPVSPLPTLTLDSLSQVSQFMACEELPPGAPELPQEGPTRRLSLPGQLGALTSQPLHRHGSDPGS

CC(=O)N1CCN(CCN2C3CCC2CC(NC(=O)c2nn(C(C)C)c4ccccc24)C3)CC1 [compound of formula I, 1-isopropyl-1H-indazole-3-carboxylic acid {(1S,3R,5R)-8-[2-(4-acetylpiperazin-1-yl)ethyl]-8-azabicyclo[3.2.1]oct-3-yl}amide]
inhibition at 5 min, 3 µM: < 15%
